One data set can be described thus: in vitro. As to conditions: African green monkey.
Data set [1] concerns SARS-CoV-2 wild-type (2019-nCoV-WIV04). The data set is classed as cell-based.
Data set [2] has as its system SARS-CoV-2 B.1.1.7 (Alpha). The data set is classed as cell-based. The following applies: Vero E6 cells, mean ± SD.
The subject of data set [3] is SARS-CoV-2 B.1.351 (Beta). The format is cell-based. As to conditions: Vero E6 cells, mean ± SD.
Data set [4] has as its system SARS-CoV-2 B.1.617.2 (Delta). The data set is classed as cell-based. As to conditions: Vero E6 cells, mean ± SD.
Data set [5] relates to SARS-CoV-2 (2019-nCoV-WIV04). The data set is classed as cell-based. As to conditions: Vero E6.
Another data set relates to SARS-CoV-2. Description: Time of addition assay in Vero E6 cells. The format is cell-based. As to conditions: 2 μM, 10 μM, 1 μM + P-gp inhibitor; entry, post entry and full-time.
For data set [6] the following is noted: healthy human; ref NCT05197179 and NCT04766931; cited from earlier work.

These results are taken from PMC9617675 (Antiviral Research, 2022).

Values joined by “and” are separate entries in the source; they are usually repeats but may differ in a detail not shown here. Identical values can stand only once. Like-named read-outs stand apart in the source and are kept apart here.

By EC50 is commonly meant the concentration giving half of the maximal effect. One may read the EC90 as the point of the concentration-response curve where the effect stands at 90%.

With `CCN(CC)CCCC(C)Nc1ccnc2cc(Cl)ccc12` (stereo not drawn) [Chloroquine phosphate], the CC50 in “in vitro” is > 100000 nM.

On to `O=C[C@H](C[C@@H]1CCNC1=O)NC(=O)[C@H](CC1CCCCC1)NC(=O)c1cc2ccccc2[nH]1` [FB2001], for which the EC50 in [1] was found to be 420 ± 80 nM; in data set [2] it was 390 ± 10 nM; in data set [3], 280 ± 110 nM; in data set [4], 270 ± 50 nM; in data set [5] (10% human serum), 1100 nM; in data set [5] (20% human serum), 1910 nM. For the same compound, the EC50 is 2570 nM in data set [5] (30% human serum), 2150 nM in [5] (40% human serum) and 2400 nM in data set [5] (50% human serum). Moreover, the EC90 in data set [1] is 1360 ± 1730 nM; in [2], 750 ± 10 nM; in [3] it was 570 ± 210 nM; in data set [4] it was 810 ± 200 nM. For the same compound, the “antiviral activity in time of addition assay” value with SARS-CoV-2 is “potent antiviral activities under all conditions”. Also, the CC50 with Vero E6 cells (CCK8, 24 h) is 243000 nM and 274000 nM; in the data set on Vero E6 cells (CCK8, with P-gp inhibitor CP-100356) it was 142000 nM. Also, the safety and tolerability entry in data set [6] is “good safety and tolerability”.

For `CC(C)(C)[C@H](NC(=O)C(F)(F)F)C(=O)N1C[C@H]2[C@@H]([C@H]1C(=O)N[C@H](C#N)C[C@@H]1CCNC1=O)C2(C)C` [PF-07321332, reference compound], the EC50 was found to be 820 ± 20 nM in [2], 490 ± 60 nM in [3] and 780 ± 210 nM in data set [4]. Besides, the EC90 came out at 1540 ± 20 nM in data set [2], 1740 ± 260 nM in data set [3] and 1890 ± 100 nM in data set [4].
